In ChEMBL document CHEMBL1125820, “Structure-activity relationship of mutagenic aromatic and heteroaromatic nitro compounds. Correlation with molecular orbital energies and hydrophobicity” (J Med Chem, 1991):

What was measured:
[1] = Partition coefficient (logP); settings: octanol/water
[2] = system: Salmonella typhimurium; assay: Mutagenic activity in an Ames test on Salmonella Typhimurium TA98; Activity is log of revertants/nmol; assay type: functional, Salmonella enterica subsp. enterica serovar Typhimurium; set-up: scale not given here

Row | SMILES | logP [1] | Activity [2]
1 | O=[N+]([O-])c1cc(Cl)ccc1Cl | 2.9 | -1.54
2 | O=[N+]([O-])c1ccc2ccc3c4c(cc5ccc1c2c53)C(O)C(O)C=C4 (stereo not given) | 3.01 | 3.08
3 | O=[N+]([O-])c1cccc2ncccc12 | 1.86 | -0.96
4 | O=[N+]([O-])c1ccc2ncccc2c1 | 1.84 | -1.08
5 | NC(=O)N/N=C/c1ccc([N+](=O)[O-])o1 [NITROFURAZONE] | 0.23 | 1.02
6 | Nc1c(Br)cc([N+](=O)[O-])cc1[N+](=O)[O-] | 2.78 | -1.32
7 | O=[N+]([O-])c1ccc2ccc3c([N+](=O)[O-])ccc4ccc1c2c43 | 4.44 | 5.06
8 | Cc1ccccc1-c1ccc([N+](=O)[O-])c(C)c1 | 4.49 | -0.84
9 | Nc1cccc(-c2cccc([N+](=O)[O-])c2)c1 | 2.68 | -1.7
10 | O=[N+]([O-])c1ccc2c(c1)NCC2 | 1.92 | -0.48
11 | O=[N+]([O-])c1ccc(F)c(Cl)c1 | 2.74 | -1.21
12 | O=[N+]([O-])c1ccc2c3c([N+](=O)[O-])ccc4ccc5ccc6ccc1c2c6c5c43 | 6.07 | 4.33
13 | O=[N+]([O-])c1c(Cl)cc2c(c1Cl)Oc1cc(Cl)c(Cl)cc1O2 | 7.13 | -1.4
14 | O=[N+]([O-])c1cc(O)c2ccc3cccc4ccc1c2c34 | 4.66 | 3.87
15 | O=[N+]([O-])c1ccc(-c2ccc([N+](=O)[O-])cc2)cc1 | 3.52 | 1.17
16 | O=[N+]([O-])c1cccc(Cl)c1Cl | 3.05 | -1.51
17 | O=[N+]([O-])c1ccc2c3c(cccc13)-c1cc3ccccc3cc1-2 | 5.87 | 2.76
18 | O=[N+]([O-])c1ccc2[nH]ccc2c1 | 2.13 | 0.57
19 | Nc1ccc(-c2cccc([N+](=O)[O-])c2)cc1 | 2.68 | -1.52
20 | O=[N+]([O-])c1ccc(-c2ccccc2)cc1 | 3.77 | -0.3
21 | O=[N+]([O-])c1ccc2c3c(c4cccc5ccc1c2c54)CCCC3 | 6.26 | 0.78
22 | O=[N+]([O-])c1cc2c3c(cccc3c1[N+](=O)[O-])-c1ccccc1-2 | 4.44 | 2.62
23 | O=[N+]([O-])c1cccc2cn[nH]c12 [7-NITROINDAZOLE] | 1.75 | 0.11

Row | SMILES | logP [1] | Activity [2]
24 | CN1Cc2cccc([N+](=O)[O-])c2N1 | 1.77 | 0.23
25 | O=[N+]([O-])c1ccc2ccc3ccc(O)c4ccc1c2c34 | 4.19 | 1.49
26 | O=[N+]([O-])c1ccc2c(c1)-c1cccc3cccc-2c13 | 4.69 | 4.05
27 | O=[N+]([O-])c1ccc2ccc3cccc4ccc1c2c34 [1-NITROPYRENE] | 4.69 | 2.78
28 | Nc1ccc([N+](=O)[O-])cc1O | 1.36 | -2.4
29 | O=[N+]([O-])c1ccc(F)cc1F | 1.89 | -1.66
30 | O=[N+]([O-])c1cc2ccccc2c2ccc3ccccc3c12 | 5.41 | -0.22
31 | O=[N+]([O-])c1ccc2oc3ccccc3c2c1 | 3.83 | 1.64
32 | O=C1NCCN1c1ncc([N+](=O)[O-])s1 [NIRIDAZOLE] | 0.95 | 2.59
33 | O=[N+]([O-])c1cccc2cccc([N+](=O)[O-])c12 | 2.52 | 0.9
34 | O=C(/C=C/c1ccc([N+](=O)[O-])cc1)c1ccc([N+](=O)[O-])cc1 | 2.73 | -1.42
35 | O=[N+]([O-])c1ccc2c(c1)Cc1cc([N+](=O)[O-])ccc1-2 | 3.35 | 3.22
36 | O=[N+]([O-])c1ccc2cccc3c2c1CC3 | 3.81 | 1
37 | O=[N+]([O-])c1cccc2c1-c1cccc3cccc-2c13 | 4.69 | 1.87
38 | O=[N+]([O-])c1ccc2c(ccc3ccccc32)c1 | 4.23 | 2.11
39 | O=[N+]([O-])c1ccc2c(c1)Oc1cc(Cl)c(Cl)cc1O2 | 6.24 | 1.73
40 | O=[N+]([O-])c1ccc2cn[nH]c2c1 | 2.06 | 0.66
41 | O=[N+]([O-])c1ccc2ccc3c(O)ccc4ccc1c2c43 | 4.19 | 1.34
42 | O=[N+]([O-])c1cc2c(cc1Cl)Oc1cc(Cl)c(Cl)cc1O2 | 6.68 | -0.53
43 | O=[N+]([O-])c1nc2ccccc2[nH]1 | 1.59 | 0
44 | O=[N+]([O-])c1ccc(F)cc1 | 1.8 | -0.23
45 | COc1cc([N+](=O)[O-])c2ncccc2c1 | 1.87 | -1.21
46 | O=[N+]([O-])c1ccc2c3c(c4c([N+](=O)[O-])ccc5ccc1c2c54)CCCC3 | 6.01 | 2.41

Row | SMILES | logP [1] | Activity [2]
47 | O=[N+]([O-])c1cccc2ccccc12 | 3.19 | -0.61
48 | O=C(/C=C/c1ccccc1)c1ccc([N+](=O)[O-])cc1 | 2.83 | -1.15
49 | O=[N+]([O-])c1ccc(F)cc1[N+](=O)[O-] | 1.89 | -1.84
50 | O=[N+]([O-])c1ccc2ccc3c4c(cc5ccc1c2c53)C=CC(O)C4O (stereo not given) | 3.01 | 2.8
51 | O=[N+]([O-])c1ccc2c3c(ccc([N+](=O)[O-])c13)-c1ccccc1-2 | 4.44 | 3.62
52 | C=Cc1ccc([N+](=O)[O-])cc1 | 2.61 | -1.3
53 | O=C(/C=C/c1ccc([N+](=O)[O-])o1)N/N=C/c1ccc([N+](=O)[O-])o1 | 2.79 | 2.45
54 | O=[N+]([O-])c1ccc2c(c1)Oc1ccccc1O2 | 4.73 | 1.79
55 | O=[N+]([O-])c1ccc2ccc3cccc4c5c(c1c2c34)CCCC5 | 6.26 | 0.7
56 | Cn1ncc2cccc([N+](=O)[O-])c21 | 1.77 | -1
57 | O=[N+]([O-])c1c2ccccc2c2ccc3cccc4ccc1c2c43 | 5.87 | 1.64
58 | O=[N+]([O-])C1=CC=CC2Nc3cccc([N+](=O)[O-])c3NC12 (stereo not given) | 2.29 | 1.26
59 | O=[N+]([O-])c1cc2c3c(cccc3c1)-c1ccccc1-2 | 4.69 | 3.01
60 | O=[N+]([O-])c1ccc2c3c(cccc13)CC2 | 3.85 | 0.58
61 | Cc1ccc2c(c1)Cc1cc([N+](=O)[O-])ccc1-2 | 4.62 | 2.36
62 | O=[N+]([O-])c1ccc2c(c1)Cc1ccccc1-2 [2-NITROFLUORENE] | 3.37 | 1.43
63 | O=[N+]([O-])c1ccc2c(c1)C=CC2 | 2.74 | 0.08
64 | O=[N+]([O-])c1ccc2c3c(cccc13)C=C2 | 3.36 | 1.91
65 | O=[N+]([O-])c1cccc2[nH]c3ccccc3c12 | 3.51 | -2
66 | O=[N+]([O-])C1=CC=CC2Nc3ccccc3NC12 (stereo not given) | 2.52 | 0.87
67 | Nc1ccc(Cl)cc1[N+](=O)[O-] [4-CHLORO-2-NITROANILINE] | 2.72 | -2
68 | CCOc1ccccc1[N+](=O)[O-] | 2.35 | -2.22
69 | O=[N+]([O-])c1ccc(-c2cccc([N+](=O)[O-])c2)cc1 | 3.52 | 0.23

Row | SMILES | logP [1] | Activity [2]
70 | O=[N+]([O-])c1ccc2cccc3c2c1C=C3 | 3.36 | 1.77
71 | O=C/C=C/c1ccc([N+](=O)[O-])o1 | 0.96 | 1.97
72 | O=[N+]([O-])c1ccc2cc3ccccc3cc2c1 | 4.23 | 2.95
73 | N#Cc1ccc2c(c1)Cc1cc([N+](=O)[O-])ccc1-2 | 3.4 | 2.51
74 | O=[N+]([O-])c1ccc2[nH]c3ccccc3c2c1 | 3.51 | -0.7
75 | O=[N+]([O-])C1=CC2Nc3ccc([N+](=O)[O-])cc3NC2C=C1 (stereo not given) | 2.29 | 4.34
76 | O=[N+]([O-])c1ccc(Cl)c(Cl)c1Cl | 3.61 | -2.94
77 | Nc1ccccc1-c1cccc([N+](=O)[O-])c1 | 2.68 | -1.52
78 | O=[N+]([O-])c1cc2c3c(c([N+](=O)[O-])c([N+](=O)[O-])cc3c1)-c1ccccc1-2 | 4.18 | 3.16
79 | O=[N+]([O-])c1ccc2c(c1)CCc1ccccc1-2 | 4.53 | 1.99
80 | O=[N+]([O-])c1ccc2c(c1)Cc1cc(Br)ccc1-2 | 4.83 | 3.06
81 | O=[N+]([O-])c1ccc2c(ccc3c4ccccc4ccc23)c1 | 5.41 | -0.22
82 | O=[N+]([O-])c1ccc2c3ccccc3c3c([N+](=O)[O-])ccc4ccc1c2c43 | 5.61 | 1.99
83 | Cc1cc2ccccc2cc1[N+](=O)[O-] | 3.43 | 0
84 | O=[N+]([O-])c1ccc2ccc3c([N+](=O)[O-])cc([N+](=O)[O-])c4ccc1c2c34 | 4.18 | 4.99
85 | O=[N+]([O-])c1cc2c3c(ccc4cc([N+](=O)[O-])cc(c43)CC2)c1 | 4.73 | 4.25
86 | O=[N+]([O-])c1ccc(Cl)c([N+](=O)[O-])c1 [DINITROCHLOROBENZENE] | 2.17 | 0.3
87 | Cn1ncc2cc([N+](=O)[O-])ccc21 | 1.77 | -0.82
88 | O=[N+]([O-])c1cc2c3c(cc([N+](=O)[O-])c([N+](=O)[O-])c3c1)-c1ccccc1-2 | 4.18 | 3.44
89 | Cc1cc(-c2ccccc2)ccc1[N+](=O)[O-] | 3.99 | -0.1
90 | O=[N+]([O-])c1cc2ccc3ccc4ccc5ccc6ccc1c1c6c5c4c3c21 | 6.79 | 0.45
